Values after ≈ are worked out from the molar mass of the structure shown. Where two headings read alike, the source gives them in different places.
Assays:
bFGF = bFGF (Homo sapiens, UniProt P09038); experiment: Biacore biosensor: inhibition of bFGF binding to immobilised heparin and heparan sulfate; settings: for Inhibition of binding of bFGF (HS) / Inhibition of binding of bFGF (Hep): inhibitor 0.034 μM, bFGF 0.034 μM
Procedure: (§1) Assays were performed using a Biacore™ 2000 optical biosensor obtained from Biacore AB, Uppsala, Sweden. The biosensor was operated in accordance with the manufacturer's instructions. Briefly, neutravidin was covalently coupled to the surface of CM5 chips of the biosensor and then either biotinylated heparin (1 μg/ml) or biotinylated heparan sulfate ([…]) bound to the immobilised neutravidin. Mixtures of a test compound and a growth factor or other effector compound were preincubated for 2 to 5 minutes and the mixtures then added to individual biosensor cuvettes. Binding of growth factor or effector compound to the heparin or heparan sulfate was then monitored for approximately 5 minutes with the biosensor.
(§2) The tabulated values are the IC50 in μM or % inhibition of binding of the growth factor to the immobilised heparan sulfate (HS) or heparin.

rat aorta fragments = experiment: In vitro angiogenesis inhibition assay; assay type: cell-based; settings: control 90
Procedure: The ability of linked cyclitol compounds to inhibit angiogenesis in vitro was conducted using the assay essentially as described in the present applicant's International Patent Application No. PCT/AU95/00105 (Publication No. WO 95/23968), the entire content of which is incorporated herein by cross reference. The only changes to the procedure described in PCT/AU95/00105 were that the assays were conducted using rat aorta fragments rather than human placental vessel fragments.
All potential inhibitors were tested at 100 μg/ml with PI-88 also being tested at 10 μg/ml. The tabulated data represent means of 4 culture wells for each experiment. Significant inhibition of angiogenesis is indicated with a single asterisk while double asterisks denote highly significant inhibition.
The compounds were also tested at the same purity as in Example 15 save that the second entries for 4b and 4j relate to data obtained with higher purity compounds than the compounds used for the first data entries of each.

aFGF = aFGF (Homo sapiens, UniProt P05230); experiment: Biacore biosensor: inhibition of aFGF binding to immobilised heparin and heparan sulfate; settings: inhibitor 0.034 μM, aFGF 0.025 μM; for Inhibition of binding of aFGF (HS): immobilised heparan sulfate; for Inhibition of binding of aFGF (Hep): immobilised heparin
Chain of aFGF (P05230 whole entry, species assumed): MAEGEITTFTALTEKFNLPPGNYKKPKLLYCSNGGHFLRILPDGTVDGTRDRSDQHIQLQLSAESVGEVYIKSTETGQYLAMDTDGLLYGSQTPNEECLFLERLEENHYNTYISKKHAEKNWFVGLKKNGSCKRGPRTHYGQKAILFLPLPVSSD
Procedure: as §1, §2

[1] = molecular target: T1, human platelet heparanase (Homo sapiens, UniProt Q9Y251); experiment: Heparanase inhibition, 3H-radiolabelled HS cleavage assay; assay type: biochemical; settings: for Relative inhibition (%): based on a comparison with heparin with 100% inhibition at 30 μg/ml; for EC50: heparanase inhibition
T1 construct: 10 ng of purified human platelet heparanase; from tissue; host or cells: human platelets
T1 sequence (Q9Y251 158-543 limits assumed): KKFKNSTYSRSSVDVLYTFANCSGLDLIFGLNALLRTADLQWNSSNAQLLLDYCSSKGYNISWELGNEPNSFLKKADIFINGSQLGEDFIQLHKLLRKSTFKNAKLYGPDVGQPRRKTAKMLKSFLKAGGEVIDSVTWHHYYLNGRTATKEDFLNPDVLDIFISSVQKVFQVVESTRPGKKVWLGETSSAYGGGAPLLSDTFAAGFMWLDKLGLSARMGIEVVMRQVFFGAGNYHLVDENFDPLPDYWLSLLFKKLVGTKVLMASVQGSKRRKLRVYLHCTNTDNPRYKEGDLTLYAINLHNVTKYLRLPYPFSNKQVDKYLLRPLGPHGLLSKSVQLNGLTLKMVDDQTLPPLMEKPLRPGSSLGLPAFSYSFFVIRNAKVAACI
T1 sequence (Q9Y251 36-109 limits assumed): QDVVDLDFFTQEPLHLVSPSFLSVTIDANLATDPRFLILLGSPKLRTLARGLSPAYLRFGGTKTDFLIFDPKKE
Procedure: Briefly, to an incubation mixture of […] containing ^3H-radiolabelled porcine mucosal HS […], 50 mM-sodium acetate buffer, pH 5.0, […] bovine serum albumin and the inhibitor to be tested, was added 10 ng of purified human platelet heparanase and the mixture incubated for 30 min. The reaction was terminated by freezing the assay tubes. The substrate was separated from the cleavage products on minicolumns of sepharose-bound histidine-rich glycoprotein (Freeman, C., and Parish, C. R. [1997], supra).
Inhibitory activity is based on a comparison with heparin with 100% inhibition at 30 μg/ml. The compounds were also tested at the same purity as in Example 15.

VEGF = molecular target: T2, VEGF (Homo sapiens, UniProt P15692); experiment: Biacore biosensor: inhibition of VEGF binding to immobilised heparin and heparan sulfate; settings: inhibitor 0.034 μM, VEGF 0.025 μM; for Inhibition of binding of VEGF (HS): immobilised heparan sulfate; for Inhibition of binding of VEGF (Hep): immobilised heparin
T2 sequence (P15692 27-191 isoform P15692-4): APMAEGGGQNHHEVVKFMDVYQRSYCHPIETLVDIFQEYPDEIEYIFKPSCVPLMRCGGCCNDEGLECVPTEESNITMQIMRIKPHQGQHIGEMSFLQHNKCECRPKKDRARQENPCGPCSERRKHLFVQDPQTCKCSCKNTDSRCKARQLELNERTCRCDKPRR
Procedure: as §1, §2

[2] = molecular target: T3, human leukocyte Cathepsin G (Homo sapiens, UniProt P08311); experiment: Cathepsin G inhibition, fluorogenic substrate, 96 well assay; assay type: biochemical; settings: human leukocyte cathepsin G 100 ng, 37° C., 60 min, pH 6.6
T3 construct: human leukocyte Cathepsin G (100 ng protein); from tissue; host or cells: human leukocytes
T3 sequence (P08311 21-244): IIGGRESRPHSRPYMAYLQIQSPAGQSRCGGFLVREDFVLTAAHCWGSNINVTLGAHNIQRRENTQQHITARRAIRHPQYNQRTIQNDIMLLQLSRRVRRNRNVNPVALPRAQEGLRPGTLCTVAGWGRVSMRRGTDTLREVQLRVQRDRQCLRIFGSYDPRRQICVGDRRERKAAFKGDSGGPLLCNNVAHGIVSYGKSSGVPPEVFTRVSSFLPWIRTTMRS
Procedure: Cathepsin G activity was determined using a 96 well assay format in PVC microtitre U-bottom plates with activity determination by a fluorescence plate reader. Briefly, within a total incubation volume of 40 μl, human leukocyte Cathepsin G (100 ng protein) was added to a mixture of inhibitor and the fluorogenic substrate MeOSuc-ala-ala-pro-phe-AMAC in 50 mM-NaOAc buffer, pH 6.6 containing 50 mM NaCl and 0.1% (v/v) Brij 35. The mixture was incubated at 37° C. for 60 min, the reaction stopped by the addition of 40 μl of 250 mM acetic acid and the fluorescence determined with excitation at 360 nm and emitted light measured at 460 nm.
In this table, the linked cyclitol compound identifications are the same as those given in Section A above where the structures of the compounds are also given. With regard to the purity rating, a greater number of asterisks signifies a greater degree of purity with five asterisks signifying an essentially pure compound. The cathepsin G inhibition data are the concentrations of compounds required to inhibit the enzyme by 50%.

IL-8 = molecular target: T4, IL-8 (Homo sapiens, UniProt P10145); experiment: Biacore biosensor: inhibition of IL-8 binding to immobilised heparin and heparan sulfate; settings: inhibitor 1.0 μM, IL-8 0.068 μM; for Inhibition of binding of IL-8 (HS): immobilised heparan sulfate; for Inhibition of binding of IL-8 (Hep): immobilised heparin
T4 sequence (P10145 21-99): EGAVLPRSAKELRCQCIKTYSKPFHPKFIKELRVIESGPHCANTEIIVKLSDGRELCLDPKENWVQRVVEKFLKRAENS
Procedure: as §1

[3] = inhibitor 100 μg/ml, means of 4 culture wells per experiment, * significant, ** highly significant inhibition
[4] = immobilised heparan sulfate, read-out: IC50, inhibition of bFGF binding (HS)
[5] = immobilised heparin, read-out: IC50, inhibition of bFGF binding (Hep)

Chain of bFGF (P09038 134-288 limits assumed, species assumed): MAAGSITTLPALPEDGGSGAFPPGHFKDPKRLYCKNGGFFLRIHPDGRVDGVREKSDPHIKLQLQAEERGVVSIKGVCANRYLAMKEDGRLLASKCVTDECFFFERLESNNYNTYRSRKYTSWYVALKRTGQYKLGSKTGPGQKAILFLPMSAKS

Row | Compound | Inhibition of binding of bFGF (HS) (bFGF; immobilised heparan sulfate) | Inhibition of binding of bFGF (Hep) (bFGF; immobilised heparin) | Inhibition of binding of aFGF (HS) (aFGF) | Inhibition of binding of aFGF (Hep) (aFGF) | Relative inhibition (%) [1] | EC50 [1] | Inhibition of binding of VEGF (HS) (VEGF) | Inhibition of binding of VEGF (Hep) (VEGF) | Amount for 50% inhibition [2] | Inhibition of binding of IL-8 (HS) (IL-8) | Inhibition of binding of IL-8 (Hep) (IL-8) | IC50 (bFGF; [4]) | IC50 (bFGF; [5]) | Inhibition (%) at 10 μg/ml ([1]; 10 μg/ml) | % Growth (rat aorta fragments; [3]) | % Growth (rat aorta fragments; inhibitor 100 μg/ml, second entry, higher purity compound, * significant inhibition) | % Growth (rat aorta fragments; inhibitor 10 μg/ml, * significant inhibition)
1 | O=S(=O)(O)OC1C=CC(N(CCCCCCN(C2C=CC(OS(=O)(=O)O)C(OS(=O)(=O)O)C2OS(=O)(=O)O)C2C=CC(OS(=O)(=O)O)C(OS(=O)(=O)O)C2OS(=O)(=O)O)C2C=CC(OS(=O)(=O)O)C(OS(=O)(=O)O)C2OS(=O)(=O)O)C(OS(=O)(=O)O)C1OS(=O)(=O)O (stereo not shown) [Compound 4b] | 48% (HS) | 52% (Hep) | 47% (HS) | 44% (Hep) | 45% | 40 µg/mL (≈ 25.2 µM) | 32% (HS) | 45% (Hep) | 0.22 µg/mL | 48% (HS) | 55% (Hep) |  |  |  | 70% | 65* % | 
2 | O=S(=O)(O)OC1C=CC(N(Cc2cccc(CN(C3C=CC(OS(=O)(=O)O)C(OS(=O)(=O)O)C3OS(=O)(=O)O)C3C=CC(OS(=O)(=O)O)C(OS(=O)(=O)O)C3OS(=O)(=O)O)c2)C2C=CC(OS(=O)(=O)O)C(OS(=O)(=O)O)C2OS(=O)(=O)O)C(OS(=O)(=O)O)C1OS(=O)(=O)O (stereo not shown) [Compound 4d] | 68% (HS) | 52% (Hep) | 65% (HS) | 65% (Hep) | 75% | 15 µg/mL (≈ 9.32 µM) | 40% (HS) | 44% (Hep) | 0.43 µg/mL | 50% (HS) | 57% (Hep) | 23 nM | 32 nM |  | 67% |  | 
3 | O=S(=O)(O)OC1C=CC(N(Cc2ccc(CN(C3C=CC(OS(=O)(=O)O)C(OS(=O)(=O)O)C3OS(=O)(=O)O)C3C=CC(OS(=O)(=O)O)C(OS(=O)(=O)O)C3OS(=O)(=O)O)cc2)C2C=CC(OS(=O)(=O)O)C(OS(=O)(=O)O)C2OS(=O)(=O)O)C(OS(=O)(=O)O)C1OS(=O)(=O)O (stereo not shown) [Compound 4e] | 61% (HS) | 49% (Hep) | 63% (HS) | 66% (Hep) | 70% | 9 µg/mL (≈ 5.59 µM) | 51% (HS) | 63% (Hep) | 0.30 µg/mL | 65% (HS) | 62% (Hep) |  |  |  | 55* % |  | 
4 | O=S(=O)(O)OC1C(OS(=O)(=O)O)C(OS(=O)(=O)O)C(N(Cc2ccc(CN(C3C(OS(=O)(=O)O)C(OS(=O)(=O)O)C(OS(=O)(=O)O)C(OS(=O)(=O)O)C3OS(=O)(=O)O)C3C(OS(=O)(=O)O)C(OS(=O)(=O)O)C(OS(=O)(=O)O)C(OS(=O)(=O)O)C3OS(=O)(=O)O)cc2)C2C(OS(=O)(=O)O)C(OS(=O)(=O)O)C(OS(=O)(=O)O)C(OS(=O)(=O)O)C2OS(=O)(=O)O)C(OS(=O)(=O)O)C1OS(=O)(=O)O (stereo not shown) [Compound 5e] |  |  |  |  |  |  |  |  |  |  |  |  |  |  | 60* % |  | 

Further lines, with some results ahead:

Row | Inhibition of binding of bFGF (HS) (bFGF; immobilised heparan sulfate) | Inhibition of binding of bFGF (Hep) (bFGF; immobilised heparin) | Inhibition of binding of aFGF (HS) (aFGF) | Inhibition of binding of aFGF (Hep) (aFGF) | Relative inhibition (%) [1] | EC50 [1] | Inhibition of binding of VEGF (HS) (VEGF) | Inhibition of binding of VEGF (Hep) (VEGF) | Amount for 50% inhibition [2] | Inhibition of binding of IL-8 (HS) (IL-8) | Inhibition of binding of IL-8 (Hep) (IL-8) | IC50 (bFGF; [4]) | IC50 (bFGF; [5]) | Inhibition (%) at 10 μg/ml ([1]; 10 μg/ml) | Compound | % Growth (rat aorta fragments; [3]) | % Growth (rat aorta fragments; inhibitor 100 μg/ml, second entry, higher purity compound, * significant inhibition) | % Growth (rat aorta fragments; inhibitor 10 μg/ml, * significant inhibition)
5 | 43% (HS) | 33% (Hep) | 54% (HS) | 67% (Hep) | 85% | 12 µg/mL (≈ 4.96 µM) | 11% (HS) | 13% (Hep) | 0.53 µg/mL | 42% (HS) | 52% (Hep) |  |  |  | O=S(=O)(O)OC(CN([C@H]1[C@H](OS(=O)(=O)O)[C@H](OS(=O)(=O)O)[C@@H](OS(=O)(=O)O)[C@@H](OS(=O)(=O)O)[C@@H]1OS(=O)(=O)O)[C@H]1[C@H](OS(=O)(=O)O)[C@H](OS(=O)(=O)O)[C@@H](OS(=O)(=O)O)[C@@H](OS(=O)(=O)O)[C@@H]1OS(=O)(=O)O)CN([C@H]1[C@H](OS(=O)(=O)O)[C@H](OS(=O)(=O)O)[C@@H](OS(=O)(=O)O)[C@@H](OS(=O)(=O)O)[C@@H]1OS(=O)(=O)O)[C@H]1[C@H](OS(=O)(=O)O)[C@H](OS(=O)(=O)O)[C@@H](OS(=O)(=O)O)[C@@H](OS(=O)(=O)O)[C@@H]1OS(=O)(=O)O [Compound 5l] | 80% |  | 
6 | 56% (HS) | 50% (Hep) | 33% (HS) | 96% (Hep) | 100% | 2.9 µg/mL | 65% (HS) | 29% (Hep) |  | 0% | 10% | 25 nM | 34 nM | 90% | phosphomannopentaose sulfate [PI-88, reference compound] | 45** % |  | 64* %

From patent publication US7173019B2, “Linked cyclitols and their polysulfated derivatives” (The Australian National University, priority 2001, dated 2007)
